Source: patent US20150150878A1, “Methods For Inhibiting Viruses By Targeting Cathepsin-L Cleavage Sites In The Viruses' Glycoproteins” (priority 2012, published 2015)

Columns and labels:
Assay type in all cases: biochemical
Parameters in all cases: human cathepsin L purified from human liver (Sigma Aldrich); purchased Sigma Aldrich; host or cells: human liver (tissue-purified)
[1] = molecular target: T1, cathepsin L (Homo sapiens, UniProt P07711)
[2] = molecular target: T1, cathepsin L; remark: listed apart in the source
[3] = molecular target: T1, cathepsin L; remark: listed apart in the source
[4] = molecular target: T1, cathepsin L; remark: listed apart in the source
[5] = molecular target: T1, cathepsin L; remark: listed apart in the source
Further: test concentration or dose not given here.

T1 sequence (P07711 114-333): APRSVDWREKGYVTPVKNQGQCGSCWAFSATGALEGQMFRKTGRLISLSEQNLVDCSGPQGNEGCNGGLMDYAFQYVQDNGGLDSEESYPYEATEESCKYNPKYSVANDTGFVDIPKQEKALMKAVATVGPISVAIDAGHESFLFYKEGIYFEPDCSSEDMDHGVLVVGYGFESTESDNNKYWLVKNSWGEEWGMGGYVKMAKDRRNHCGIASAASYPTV

Compound	Inhibition of cleavage of SARS peptide by Cathepsin-L [1] [%]	Inhibition of cleavage of Ebola peptide by Cathepsin-L [2] [%]	Inhibition of cleavage of Nipah peptide by Cathepsin-L [3] [%]	Inhibition of cleavage of Hendra peptide by Cathepsin-L [4] [%]	Inhibition of cleavage of NPY peptide by Cathepsin-L [5] [%]	percentage inhibition against SARS peptide [1] [%]	percentage inhibition against Ebola peptide [2] [%]	percentage inhibition against Nipah peptide [3] [%]	percentage inhibition against Hendra peptide [4] [%]	percentage inhibition against human Pro-NPY peptide [5] [%]
CN(C)c1ccc(C(O)(c2ccc(N(C)C)cc2)c2ccc(N(C)C)cc2)cc1 [Compound 5152606]	82.15	31.8	121.65	108.40	70.2					
Nc1ccc2[nH]c3ccccc3c2c1 [Compound 5172420]	42.29	6.1	55.68	8.20	4.1					
Cl.c1ccc(CNC2CCCc3c2[nH]c2ccc(-c4ccccc4)cc32)cc1 (stereo not drawn) [Compound 5219666]	94.6	43	90.6	54.6	30	96.8	75.7	87.5	65.2	44.4
N#CSc1ccc(NC(=O)CSc2nc3ccccc3[nH]2)cc1 [Compound 6572698]	66.1	15	40.7	21.6	1	44.8	34	41.1	24.8	14.7
Cc1c(C#N)c2ccccc2n1CC(=O)NCc1ccc2c(c1)OCO2 [Compound 6874634]	65.6	4.6	46	21.2	12.8	67.7	48	54.1	22.7	13.4
Cc1c(Sc2nc3ccccc3[nH]2)c(=O)[nH]c2cc3c(cc12)OCO3 [Compound 7665576]	60.7	−3.8	63.7	37.9	2.0					
CNS(=O)(=O)c1ccc(NC(=O)Nc2ccc(F)c(Cl)c2)cc1 [Compound 7790059]	49.3	1.8	44.1	12.4	6.4					
Cc1ccc(-c2nc3ccccc3[nH]2)cc1NC(=O)c1ccc2c(c1)OCO2 [Compound 7793889]	76.5	−3.4	51.1	−7.77	6.1					
O=C(Nc1ccc(S(=O)(=O)N2CCOCC2)cc1)Nc1ccc(F)c(Cl)c1 [Compound 7798500]	69.6	−6.3	41.5	26.3	11.2	62.2	64.8	49.2	30.4	24.6
COc1ccc(OC)c(NC(=O)Nc2ccc(C(F)(F)F)cc2)c1 [Compound 7808526]	69.2	9.6	40.8	−4.08	1.2					
Cc1cnn(CCCNC(=O)c2cc(-c3cccnc3)nc3ccc(Cl)cc23)c1 [Compound 7923236]	60.2	14	55.1	32.6	5.2	66.2	34.8	80.3	59	10.1
O=C(Nc1ccc2c(c1)OCO2)c1cc(-c2cccnc2)nc2ccc(Cl)cc12 [Compound 7924029]	60	22	50.4	26.3	11	71.2	55	77.9	45.6	18.6
O=C(Nc1nc(-c2ccccc2)cs1)c1cc(-n2cnnc2)ccc1Cl [Compound 7931205]	36.8	−0.7	66.6	34.8	19.5	38.1	20	74.4	38.6	24.9
O=C(Nc1ccc(F)c(Cl)c1)Nc1nnc(C(F)(F)F)s1 [Compound 7940158]	55.8	−12.3	34	26.2	4	64.6	49.1	54.7	19	14.9
O=C(Nc1cccnc1)c1cc2cc(Br)ccc2oc1=O [Compound 7947992]	37.7	20	61.4	31.1	18.6					
Cc1cc(C(=O)Nc2cccnc2)sc1-c1ccccc1 [Compound 7948346]	72.4	25.2	49.3	17.7	10.2					
